Results on 1 compound are retold here after patent US9663502B2, “2-Acylamidomethyl and sulfonylamidomethyl benzoxazine carbamates for inhibition of RORgamma activity and the treatment of disease” (Merck Sharp & Dohme Corp., priority 2013, dated 2017).

This test concerns the target human RORgammaT-Ligand Binding Domain (LBD) (Homo sapiens (Human), UniProt P51449). The experiment in a line: RORγ-Ligand Binding Domain TR-FRET Assay (co-activator peptide SRC1_2 recruitment). It counts as biochemical. (In general: TR-FRET usually uses a lanthanide donor and a delayed reading to cut background.)

human RORgammaT-Ligand Binding Domain (LBD), sequence (P51449 269-508): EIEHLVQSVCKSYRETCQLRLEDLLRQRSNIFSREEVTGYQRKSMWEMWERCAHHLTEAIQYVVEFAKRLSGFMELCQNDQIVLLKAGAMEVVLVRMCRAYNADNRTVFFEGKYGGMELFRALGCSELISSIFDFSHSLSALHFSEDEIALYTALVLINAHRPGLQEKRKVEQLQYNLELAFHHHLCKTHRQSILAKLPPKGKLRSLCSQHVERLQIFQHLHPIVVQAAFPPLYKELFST

`CC(=O)NC[C@H]1CN(S(=O)(=O)c2ccc(F)cc2)c2cc(NC(=O)OC(C3CCCCC3)C(F)(F)F)ccc2O1` (stereo partly drawn) [Example 23D, 1-cyclohexyl-2,2,2-trifluoroethyl ((S)-2-(acetamidomethyl)-4-((4-fluorophenyl)sulfonyl)-3,4-dihydro-2H-benzo[b][1,4]oxazin-6-yl)carbamate]: the IC50 (commonly the concentration that inhibits the measured activity by half) worked out at 113 nM.
